The species named for assay [1] is Mus musculus. The experiment in a line: Inhibition of spontaneous calcium oscillations in Swiss Webster mouse neocortical neurons at 0.01 nM to 1000 nM measured for 2 mins by Fluo-3 AM dye based FLIPR assay.
The test system of assay [2] is NCI-H460. The experiment in a line: Cytotoxicity against human NCI-H460 cells after 48 hrs by MTT assay. Format: functional, cell-based. The conditions noted are these: NCI-H460, 48 h.

The source made the active and inactive calls. The calls are words filed in the database; no cut-off is given here. A value given as a limit tells only on which side of the number the result lay.

For `NCCc1ccccc1`, in assay [1], the inhibition entry was “Active”.
The compound `C=CC[C@@H](C[C@@H](C[C@@H](C[C@@H](C[C@@H](C[C@@H](C[C@@H](C[C@@H](C[C@@H](C[C@@H](CCCCC)OC)OC)OC)OC)OC)OC)OC)OC)OC)OC` showed an IC50 in assay [2] greater than 10 µM.
In assay [2], `O=C(CCCCCC=C(Cl)Cl)NCCc1ccccc1` returned an IC50 greater than 10 µM. Also, the inhibition result in assay [1] was “Active”.

For the origin of these results see ChEMBL document CHEMBL4190300, “Discovery and Synthesis of Caracolamide A, an Ion Channel Modulating Dichlorovinylidene Containing Phenethylamide from a Panamanian Marine Cyanobacterium cf. Symploca Species” (J Nat Prod, 2017).
